Laboratory results taken from article PMC3570474, “Biochemical Characterization of Uracil Phosphoribosyltransferase from Mycobacterium tuberculosis” (PLoS ONE, 2013).
“And” between values parts separate entries of the source, which are not always exact repeats. Identical values can stand only once.

Columns and labels:
[1] = target: T1, MtUPRT (Mycobacterium tuberculosis, UniProt P9WFF3); test: biochemical; format: binding; details: for Kd: K d; for ΔG / ΔH / ΔS: reverse titration, 25°C
[2] = target: T1, MtUPRT; test: Evaluation of nucleotides as allosteric effectors; format: biochemical; details: for activation or inhibition of MtUPRT: 500 µM nucleotide, 128 s
[3] = target: T1, MtUPRT; test: Steady-state kinetics of MtUPRT, continuous spectrophotometric assay (uracil to UMP, 280 nm); format: biochemical; details: for k cat/K (true steady-state) / true steady-state K (K PRPP, K uracil): initial velocity pattern, varying PRPP at fixed-varying uracil; for true steady-state K (K PRPP, K uracil): sequential mechanism fit
[4] = target: T1, MtUPRT; test: Evaluation of pyrimidine bases as substrates, discontinuous assay (HPLC, LC-ESI-MS/MS); format: biochemical; details: 0.1 mM base, 1 mM PRPP, 37°C 30 min, confirmed by LC-ESI-MS/MS
Experimental: Uracil, thymine and cytosine pyrimidine bases were evaluated as possible MtUPRT substrates. The bases were added to MtUPRT reaction mixtures and protein separated by ultrafiltration, and product formation analyzed by HPLC monitoring absorbance at 254, 260, and 280 nm. […] The MtUPRT enzyme activity measurements henceforth described were carried out using uracil as substrate and a continuous spectrophotometric assay.
Reaction mixtures containing 50 mM Tris pH 7.8, 10 mM MgCl2, 1 mM PRPP, and 0.1 mM of the pyrimidine base to be tested (uracil, cytosine, or thymine) were initiated by the addition of 54 nM of homogeneous MtUPRT. The reactions were incubated at 37°C for 30 min and then boiled for 3 min to stop the reaction. The mixtures were passed through a Centricon (10,000 Da molecular weight cut off) to remove the protein content prior to analysis. The nucleotide contents of the samples were analyzed using an HPLC Äkta Purifier system and a Sephasil peptide C18 5 µm ST 4.6/250 column. A 500 µL aliquot of each sample was loaded on the column and adsorbed material isocratically eluted with 5 mM potassium phosphate pH 4.0 containing 5% acetonitrile for 10 min at 1 mL min^−1flow rate. Nucleotides and bases were monitored at 254, 260, and 280 nm.
Another method used to analyze the nucleotide content was the LC-ESI-MS/MS. This experiment was employed to confirm results obtained in the analysis described above. The chromatography was carried out with an Eclipse plus C18 4.6/150 column (Agilent). The injected sample volume was 20 µL, which was eluted isocratically with 10 mM ammonium acetate containing 40% acetonitrile at 0.8 ml min^−1 flow rate. The LC detector was an ESI coupled to the 3200 Q-Trap (Applied Biosystems MDS SCIEX), employing the ESI-MS/MS parameters as described by others. During the chromatography run, precursor ion scan (Prec) and enhance product ion scan (EPI) were monitored. Prec monitored precursors of mass over charge ratio (m/z) of compounds containing a phosphate group (H2PO4 ^−, m/z 97) and EPI gave the fragmentation spectra of the nucleotides m/z.

[5] = test system: B. caldolyticus UPRT; set-up: method as in PMID 9268683; details: hyperbolic saturation curve; cited from earlier work
[6] = test system: S. solfataricus UPRT; set-up: method as in PMID 15752360; details: cited from earlier work
[7] = target: MtUPRT:PRPP binary complex (Mycobacterium tuberculosis, UniProt P9WFF3); test: Isothermal titration calorimetry of GTP binding to PRPP bound enzyme; details: 10 mM GTP titrated; MtUPRT 139 µM incubated with 100 µM PRPP for 1 hour
Experimental: Furthermore, no binding of GTP either to the free enzyme or to the PRPP bound enzyme was detected by ITC (data not shown). The incubation of PRPP with MtUPRT prior to the titration of GTP was tested to determine whether the binding of PRPP to MtUPRT generates conformational changes on the enzyme that could enable GTP binding. However, no binding of GTP to MtUPRT:PRPP binary complex could be detected (data now shown).
ITC experiments were carried out using an iTC200 Microcalorimeter (MicroCal Inc). Ligands and enzyme were prepared in 100 mM Hepes pH 7.5 containing 10 mM MgCl2. For direct titrations the sample cell was filled with 139 µM of MtUPRT (200 µL) and titrated (39.7 µL) with different concentrations of either substrates or products: 200 µM of uracil, 500 µM of PRPP, 500 µM of UMP, and 350 µM of PPi. In addition, titration was performed with 10 mM of GTP and the sample cell was filled with either free MtUPRT (139 µM) or MtUPRT (139 µM) incubated with 100 µM PRPP for 1 hour before starting the measurements. Reverse titrations were also carried out where the sample cell was filled with either 90 µM of PRPP or 150 µM of UMP and titrated with 633 µM of UPRT.
A stirring speed of 500 rpm and a temperature of 25°C were employed for all ITC experiments. […] The experimental data were evaluated using the Origin 7 SR4 software (MicroCal).

[8] = test system: G. intestinalis UPRT; set-up: method as in PMID 7622327; details: cited from earlier work
[9] = test system: UPRT from T. gondii; set-up: method as in PMID 11773618; details: also stabilizes the more active tetrameric form; cited from earlier work
[10] = test system: E. coli UPRT; set-up: method as in PMID 8856065; details: without affecting V max; cited from earlier work
[11] = target: the molecule itself; test: AUC
[12] = PRPP variable substrate, fixed-saturating uracil 35 µM
[13] = in the presence of 100 µM GTP, PRPP variable substrate, uracil 35 µM
[14] = in the presence of 100 µM GTP, uracil variable substrate, PRPP 350 µM
[15] = uracil variable substrate, fixed-saturating PRPP 350 µM

O=c1ccn([C@@H]2O[C@H](COP(=O)(O)O)[C@@H](O)[C@H]2O)c(=O)[nH]1 [UMP, uridine 5′-monophosphate]
Kd [1]: 7 µM and 8 µM and 13 µM and 14 µM
ΔG ([1]; Subunit 1): -7 ± 2 kcal/mol
ΔH ([1]; Subunit 1): -5.1 ± 0.4 kcal/mol
ΔS ([1]; Subunit 1): 5±1 cal mol^−1 deg^−1
ΔG ([1]; Subunit 2): -7 ± 2 kcal/mol
ΔH ([1]; Subunit 2): 6 ± 3 kcal/mol
ΔS ([1]; Subunit 2): 45±16 cal mol^−1 deg^−1
ΔG ([1]; Subunit 3): -7 ± 3 kcal/mol
ΔH ([1]; Subunit 3): -24 ± 11 kcal/mol
ΔS ([1]; Subunit 3): −56±21 cal mol^−1 deg^−1
ΔG ([1]; Subunit 4): -7 ± 2 kcal/mol
ΔH ([1]; Subunit 4): 28 ± 18 kcal/mol
ΔS ([1]; Subunit 4): 117±43 cal mol^−1 deg^−1
inhibition of MtUPRT ([2]; 100 µM UMP, 350 µM PRPP, 35 µM uracil): enzyme inhibition was observed

O=c1ccn([C@@H]2O[C@H](COP(=O)(O)OP(=O)(O)OP(=O)(O)O)[C@@H](O)[C@H]2O)c(=O)[nH]1 [UTP, uridine 5′-triphosphate]
activation or inhibition of MtUPRT ([2]; 350 µM PRPP, 35 µM uracil): not significantly activated or inhibited

O=P(O)(O)OC[C@H]1O[C@H](OP(=O)(O)OP(=O)(O)O)[C@H](O)[C@@H]1O [PRPP, 5-phosphoribosyl-α-1-pyrophosphate]
Kd [1]: 5 µM and 48 µM and 6 µM and 9 µM
ΔG ([1]; Subunit 1): -7 ± 1 kcal/mol
ΔH ([1]; Subunit 1): 2.8 ± 0.3 kcal/mol
ΔS ([1]; Subunit 1): 34±6 cal mol^−1 deg^−1
ΔG ([1]; Subunit 2): -6 ± 2 kcal/mol
ΔH ([1]; Subunit 2): -3 ± 16 kcal/mol
ΔS ([1]; Subunit 2): 10±3 cal mol^−1 deg^−1
ΔG ([1]; Subunit 3): -7 ± 2 kcal/mol
ΔH ([1]; Subunit 3): -41 ± 32 kcal/mol
ΔS ([1]; Subunit 3): −114±33 cal mol^−1 deg^−1
ΔG ([1]; Subunit 4): -7 ± 3 kcal/mol
ΔH ([1]; Subunit 4): 58 ± 22 kcal/mol
ΔS ([1]; Subunit 4): 217±85 cal mol^−1 deg^−1
K a ([1]; pH 7.5): 2.0 (±3.6)×10^5 M^−1 and 2.1 (±0.6)×10^4 M^−1 and 1.6 (±0.5)×10^5 M^−1 and 1.1 (±0.4)×10^5 M^−1
apparent V max [3, 12]: 1.75±0.02 U mg^−1
apparent k cat [3, 12]: 0.65 ± 0.01 s⁻¹
apparent K M ([3]; PRPP variable substrate, fixed-saturating uracil 35 µM, Michaelis-Menten fit): 12.4 ± 0.6 µM
apparent K M [3, 13]: 17 ± 2 µM
apparent V max [3, 13]: 1.60±0.04 U mg^−1
apparent k cat [3, 13]: 0.59 ± 0.01 s⁻¹
k cat/K (true steady-state) [3]: 4.1 (±0.2)×10^4 M^−1 s^−1
true steady-state K (K PRPP, K uracil) [3]: 14 ± 1 µM

O=c1cc[nH]c(=O)[nH]1 [uracil]
binding to free MtUPRT enzyme (heat changes) [1]: no significant heat changes
substrate activity (product formation) [4]: specific for uracil
K 0.5 [3, 14]: 2.9 ± 0.1 µM
apparent V max [3, 14]: 1.54±0.02 U mg^−1
apparent k cat [3, 14]: 0.57 ± 0.01 s⁻¹
n (Hill coefficient) [3, 14]: 2.2±0.1
k cat/K (true steady-state) [3]: 2.2 (±0.3)×10^5 M^−1 s^−1
true steady-state K (K PRPP, K uracil) [3]: 2.6 ± 0.4 µM
apparent V max [3, 15]: 1.73±0.03 U mg^−1
apparent k cat [3, 15]: 0.64 ± 0.01 s⁻¹
n (Hill coefficient) [3, 15]: 1.9±0.1
K 0.5 ([3]; uracil variable substrate, fixed-saturating PRPP 350 µM, Hill fit): 3.6 ± 0.1 µM
K M for uracil [5]: 2 µM

O=P(O)(O)OP(=O)(O)O [PPi, pyrophosphate]
binding to free MtUPRT enzyme (heat changes) [1]: no significant heat changes

Nc1ccn([C@@H]2O[C@H](COP(=O)(O)OP(=O)(O)OP(=O)(O)O)[C@@H](O)[C@H]2O)c(=O)n1 [CTP, cytidine 5′-triphosphate]
effect on UMP inhibition of MtUPRT ([2]; 500 µM CTP together with 100 µM UMP): no increase in UMP inhibition occurred
activation or inhibition of MtUPRT ([2]; 350 µM PRPP, 35 µM uracil): not significantly activated or inhibited
effect of CTP on activity ([6]; in the presence of UMP): inhibited the enzyme

Nc1nc2c(ncn2[C@@H]2O[C@H](COP(=O)(O)OP(=O)(O)OP(=O)(O)O)[C@@H](O)[C@H]2O)c(=O)[nH]1 [GTP, guanosine 5′-triphosphate]
binding to free MtUPRT enzyme (heat changes) [1]: no binding
activation or inhibition of MtUPRT ([2]; 350 µM PRPP, 35 µM uracil): not significantly activated or inhibited
binding to MtUPRT:PRPP binary complex [7]: no binding
effect of GTP on activity [8]: dramatic increase in the activity
effect of GTP on k cat and K M for PRPP and uracil [6]: increase k cat and K M values
effect of GTP on activity [9]: activated by GTP
effect on kinetic parameters for MtUPRT ([3]; 100 µM GTP): not affected
effect of GTP on kinetic parameters [10]: lowered the K M value for PRPP

Nc1cc[nH]c(=O)n1 [cytosine]
substrate activity (product formation) [4]: no product formation could be detected

Nc1ncnc2c1ncn2[C@@H]1O[C@H](COP(=O)(O)OP(=O)(O)OP(=O)(O)O)[C@@H](O)[C@H]1O [ATP, adenosine 5′-triphosphate]
activation or inhibition of MtUPRT ([2]; 350 µM PRPP, 35 µM uracil): not significantly activated or inhibited

Cc1c[nH]c(=O)[nH]c1=O [thymine]
substrate activity (product formation) [4]: no product formation could be detected

B1: Uracil phosphoribosyltransferase from Mycobacterium tuberculosis (enzyme)
chain: MQVHVVDHPLAAARLTTLRDERTDNAGFRAALRELTLLLIYEATRDAPCEPVPIRTPLAETVGSRLTKPPLLVPVLRAGLGMVDEAHAALPEAHVGFVGVARDEQTHQPVPYLDSLPDDLTDVPVMVLDPMVATGGSMTHTLGLLISRGAADITVLCVVAAPEGIAALQKAAPNVRLFTAAIDEGLNEVAYIVPGLGDAGDRQFGPR
notes: also called MtUPRT; UPRT
Kd [11]: ~1 µM
stoichiometry N [11]: 4
